Measurements: PMC9394284, “Discovery of Novel Dual Adenosine A2A and A1 Receptor Antagonists with 1H-Pyrazolo[3,4-d]pyrimidin-6-amine Core Scaffold as Anti-Parkinson’s Disease Agents” (Pharmaceuticals, 2022)
pKi: −log10 of the molar value.

Legend:
[1] = metabolic stability in cryopreserved dog hepatocytes
Method: (§1) Metabolic stability of 11o was determined in cryopreserved hepatocytes from mice, rats, dogs, monkeys and human according to the SOPs of Frontage Laboratories Inc. Briefly, cryopreserved hepatocytes for pre-clinical animals and for human (BioIVT, Westbury, NY, USA) were thawed in a 37 °C water bath with gentle shaking until ice had almost melted. The suspensions were immediately transferred to a centrifuge tube (50 mL) containing pre-warmed thawing media at 37 °C with gentle handshaking to prevent the cells from settling. Cell suspensions were centrifuged at 50× g and 4 °C for 5 min. The supernatant was discarded and the pellets were resuspended in prewarmed incubation media (5 mL) at 37 °C. The percentage of viable cells in the suspension was determined by Trypan blue staining method to ensure viability of ≥70 %. […] The samples were centrifuged and aliquots of the supernatant were analyzed for parent compounds by LC/MS/MS using suitable multiple reaction monitoring (MRM) transitions. […] The disappearance of 11o and midazolam was monitored by LC/MS/MS (MRM) analysis of the hepatocyte extracts at each time point. The peak area ratio of the analyte to internal standard was obtained for each sample and the rate of disappearance of 11o was assessed by comparing the peak area ratios at various time points to the peak area ratio obtained at t = 0. The t1/2 is obtained (using the linear portion of semi-log plot of the area ratio vs. time) and the CLint values determined using well-stirred model.

[2] = metabolic stability in cryopreserved human hepatocytes
Method: as §1

[3] = metabolic stability in cryopreserved mouse hepatocytes
Method: as §1

[4] = metabolic stability in cryopreserved rat hepatocytes
Method: as §1

[5] = metabolic stability in cryopreserved monkey hepatocytes
Method: as §1

hA2A receptors = molecular target: T1, hA2A receptors (Homo sapiens, UniProt P29274); test: radioligand binding to human A2A receptors, HEK-293 membranes; details: average of duplicate experiments
T1 construct: purchased PerkinElmer RBHA2AM
T1 sequence (P29274 whole entry): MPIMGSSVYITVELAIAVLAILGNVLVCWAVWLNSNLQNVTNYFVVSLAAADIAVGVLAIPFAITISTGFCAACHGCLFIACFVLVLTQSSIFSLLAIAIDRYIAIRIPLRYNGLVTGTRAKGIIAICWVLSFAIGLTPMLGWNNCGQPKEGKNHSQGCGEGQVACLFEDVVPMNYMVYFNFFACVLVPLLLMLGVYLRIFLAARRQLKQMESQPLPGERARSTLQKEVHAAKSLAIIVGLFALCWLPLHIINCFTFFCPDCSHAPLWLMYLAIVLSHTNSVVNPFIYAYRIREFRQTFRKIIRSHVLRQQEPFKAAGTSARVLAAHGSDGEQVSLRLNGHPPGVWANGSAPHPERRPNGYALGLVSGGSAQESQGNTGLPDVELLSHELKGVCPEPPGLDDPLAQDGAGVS
Method: The binding affinities of synthesized compounds to human A2A receptors (hA2AR) were measured by assessing competitive binding of ligands to radioligand […] using membrane preparations of human recombinant HEK-293 cells expressing human A2A receptors.
The radioligand-binding assays for adenosine receptors were performed at Eurofins Discovery Services (Panlabs, Taiwan). Briefly, stock solutions of the compounds were prepared in DMSO and further diluted with the incubation buffer to the desired concentration. Final DMSO concentrations in the assay were 1.0%. […] Nonspecific binding was estimated in the presence of 100 μM R(-)-PIA. Membranes were filtered and washed 3 times and the filters were counted to determine specifically bound [^3H]DPCPX. Chemical compounds were screened at 10 μM. […] Nonspecific binding was estimated in the presence of 50.0 μM NECA. […] Nonspecific binding was estimated in the presence of 100 μM NECA. Membranes were filtered and washed 3 times and the filters were counted to determine [^3H]MRS1754 specifically bound. […] Nonspecific binding was estimated in the presence of 1.0 μM IB-MECA.
IC50 values were determined by a nonlinear, least-squares regression analysis using MathIQ^TM (ID Business Solutions Ltd., Guildford, UK). […] The Hill coefficient (nH), which defines the slope of the competitive binding curve, was calculated using MathIQ^TM.

hA1 receptor = molecular target: T2, hA1 receptor (Homo sapiens, UniProt P30542); test: radioligand binding to human A1 receptors, CHO-K1 membranes, [3H]DPCPX; details: average of duplicate experiments
T2 sequence (P30542 1-326): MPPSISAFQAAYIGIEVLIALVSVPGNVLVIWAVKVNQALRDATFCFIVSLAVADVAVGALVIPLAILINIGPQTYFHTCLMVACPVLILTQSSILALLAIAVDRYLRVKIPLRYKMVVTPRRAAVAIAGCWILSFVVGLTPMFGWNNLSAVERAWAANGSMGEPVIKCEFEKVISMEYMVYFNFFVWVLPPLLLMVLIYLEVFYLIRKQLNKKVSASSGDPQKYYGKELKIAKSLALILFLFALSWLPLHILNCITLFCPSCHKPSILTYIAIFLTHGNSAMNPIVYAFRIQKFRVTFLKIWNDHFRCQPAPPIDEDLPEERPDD
Method: The radioligand-binding assays for adenosine receptors were performed at Eurofins Discovery Services (Panlabs, Taiwan). Briefly, stock solutions of the compounds were prepared in DMSO and further diluted with the incubation buffer to the desired concentration. Final DMSO concentrations in the assay were 1.0%. For adenosine A1 screening, a 10 μg aliquots of membrane preparations from human recombinant CHO-K1 cells stably expressing A1 receptors (CHO-K1-hA1AR clone3, EPDST, R200510) were incubated with 1 nM [^3H]DPCPX in incubation buffer (20 mM HEPES, pH 7.4, 10 mM MgCl2, 100 mM NaCl 1.40 nM) for 90 min at 25 °C. Nonspecific binding was estimated in the presence of 100 μM R(-)-PIA. Membranes were filtered and washed 3 times and the filters were counted to determine specifically bound [^3H]DPCPX. Chemical compounds were screened at 10 μM. For A2A screening, membrane preparations from human recombinant HEK-293 cells stably expressing A2A receptors (PerkinElmer, RBHA2AM) were incubated with 0.05 μM [^3H]CGS-21680 in incubation buffer (50 mM Tris-HCl, pH 7.4, 10 mM MgCl2, 1 mM EDTA, 2 U/mL Adenosine Deaminase) for 90 min at 25 °C. Nonspecific binding was estimated in the presence of 50.0 μM NECA. Membranes were filtered and washed 3 times and the filters were counted to determine [^3H]CGS-21680 specifically bound. For A2B screening, membrane preparations from human recombinant HEK-293 cells stably expressing A2B receptors (PerkinElmer, ES-013-M) were incubated with 1.6 nM [^3H]MRS1754 in incubation buffer (50 mM Tris-HCl, pH 6.5, 5 mM MgCl2, 1 mM EDTA, 0.01 % Bacitracin) for 90 min at 25 °C. Nonspecific binding was estimated in the presence of 100 μM NECA. Membranes were filtered and washed 3 times and the filters were counted to determine [^3H]MRS1754 specifically bound. For A3 screening, membrane preparations from human recombinant CHO-K1 cells stably expressing A3 receptors (PerkinElmer, ES-012-M) were incubated with 0.5 nM [^125I]AB-MECA in incubation buffer (25 mM HEPES, pH 7.4, 5 mM MgCl2, 1 mM CaCl2, 0.1 % BSA) for 60 min at 25 °C. Nonspecific binding was estimated in the presence of 1.0 μM IB-MECA.
IC50 values were determined by a nonlinear, least-squares regression analysis using MathIQ^TM (ID Business Solutions Ltd., Guildford, UK). Where inhibition constants (Ki) were presented, the Ki values were calculated using Cheng and Prusoff equation [18] using the observed IC50 of the compound, the concentration of radioligand employed in the assay, and the historical values for the KD of the ligand (obtained experimentally at Eurofins Panlabs, Inc.). The Hill coefficient (nH), which defines the slope of the competitive binding curve, was calculated using MathIQ^TM.

solubility (qualitative) = assay type: physicochemical; details: CF3 next to aniline, difficulties in forming salt

Row | Structure (SMILES) | half-life at 0.2 μM ([1]; beagle, dog, hepatocytes) | Intrinsic Clearance ([1]; dog hepatocytes, midazolam 0.2 μM) | Intrinsic Clearance ([2]; human hepatocytes, midazolam 0.2 μM) | half-life at 0.2 μM ([2]; human, hepatocytes) | half-life at 0.2 μM ([3]; CD-1, mouse, hepatocytes) | Intrinsic Clearance ([3]; mouse hepatocytes, midazolam 0.2 μM) | half-life at 0.2 μM ([4]; Sprague Dawley, rat, hepatocytes) | Intrinsic Clearance ([4]; rat hepatocytes, midazolam 0.2 μM) | Intrinsic Clearance ([5]; monkey hepatocytes, midazolam 0.2 μM) | half-life at 0.2 μM ([5]; monkey, hepatocytes) | pKi (hA2A receptors) | pKi (hA1 receptor) | solubility (in words) (solubility (qualitative))
1 | Cc1ncc2n1-c1ccc(Cl)cc1C(c1ccccc1F)=NC2 [Midazolam, reference compound] | 32.8 min | 0.0211 mL/min/10^6 Cells | 0.0101 mL/min/10^6 Cells | 68.3 min | 49.9 min | 0.0139 mL/min/10^6 Cells | 21.9 min | 0.0317 mL/min/10^6 Cells | 0.0192 mL/min/10^6 Cells | 36 min | – | – | –
2 | N#Cc1cccc(-c2nc(N)nc3c2cnn3Cc2ccc(N)c(C(F)(F)F)c2)c1F [11x, 3-(6-Amino-1-(4-amino-3-(trifluoromethyl)benzyl)-1H-pyrazolo[3,4-d]pyrimidin-4-yl)-2-fluorobenzonitrile] | – | – | – | – | – | – | – | – | – | – | 8.57 | 7.48 | greatly reduced solubility
